Numbered stars: 1 amine (or outer) side, 2 acyl side, 3 side chain; on linkers, the order of the positions; unused ones are H or OH. Square brackets hold non-standard residues; d marks the D form. Peptide text beside a SMILES is read from it. X1 = C[C@@H](O)[C@H](N[*:1])C(=O)NC(=O)[*:2]

What all share (assay type): cell-based
Assay [1] concerns the target Integrin alpha-V/beta-3 (Homo sapiens, UniProt P05106+P06756). Kind of assay: Antagonist activity at integrin alphaVbeta3 (unknown origin) expressed in HEK293 cells assessed as reduction in cell adhesion to fibrinogen after 2 hrs by MTT assay.
Assay [2] deals with Integrin alpha-V/beta-3/alpha-V/beta-5 (Homo sapiens, UniProt P05106+P06756+P18084). Put plainly: Antagonist activity at integrin alphaVbeta3alphaVbeta5 (unknown origin) expressed in SKOV3 cells assessed as reduction in cell adhesion to fibrinogen after 2 hrs by MTT assay.
Integrin alpha-V/beta-3/alpha-V/beta-5, sequence (P05106 27-788 limits assumed): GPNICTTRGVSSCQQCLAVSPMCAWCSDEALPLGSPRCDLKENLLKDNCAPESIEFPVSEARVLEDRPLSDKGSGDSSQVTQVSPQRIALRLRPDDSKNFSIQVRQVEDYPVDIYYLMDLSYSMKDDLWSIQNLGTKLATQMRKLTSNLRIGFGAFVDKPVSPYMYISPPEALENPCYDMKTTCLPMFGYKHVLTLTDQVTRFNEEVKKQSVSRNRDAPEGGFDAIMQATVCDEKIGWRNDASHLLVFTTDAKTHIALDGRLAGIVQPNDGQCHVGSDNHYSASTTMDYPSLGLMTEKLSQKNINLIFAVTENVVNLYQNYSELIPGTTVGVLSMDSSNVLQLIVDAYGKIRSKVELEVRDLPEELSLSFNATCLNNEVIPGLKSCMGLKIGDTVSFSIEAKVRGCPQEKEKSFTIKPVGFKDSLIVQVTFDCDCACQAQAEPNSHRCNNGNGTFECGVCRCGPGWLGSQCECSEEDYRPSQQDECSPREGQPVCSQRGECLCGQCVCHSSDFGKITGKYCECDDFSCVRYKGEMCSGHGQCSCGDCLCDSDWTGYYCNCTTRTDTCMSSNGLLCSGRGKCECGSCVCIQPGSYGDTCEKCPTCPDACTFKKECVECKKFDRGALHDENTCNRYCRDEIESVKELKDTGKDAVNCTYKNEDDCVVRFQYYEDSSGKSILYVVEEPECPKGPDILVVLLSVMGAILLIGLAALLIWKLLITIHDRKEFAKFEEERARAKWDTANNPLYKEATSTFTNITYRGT
Integrin alpha-V/beta-3/alpha-V/beta-5, sequence (P06756 31-889 limits assumed): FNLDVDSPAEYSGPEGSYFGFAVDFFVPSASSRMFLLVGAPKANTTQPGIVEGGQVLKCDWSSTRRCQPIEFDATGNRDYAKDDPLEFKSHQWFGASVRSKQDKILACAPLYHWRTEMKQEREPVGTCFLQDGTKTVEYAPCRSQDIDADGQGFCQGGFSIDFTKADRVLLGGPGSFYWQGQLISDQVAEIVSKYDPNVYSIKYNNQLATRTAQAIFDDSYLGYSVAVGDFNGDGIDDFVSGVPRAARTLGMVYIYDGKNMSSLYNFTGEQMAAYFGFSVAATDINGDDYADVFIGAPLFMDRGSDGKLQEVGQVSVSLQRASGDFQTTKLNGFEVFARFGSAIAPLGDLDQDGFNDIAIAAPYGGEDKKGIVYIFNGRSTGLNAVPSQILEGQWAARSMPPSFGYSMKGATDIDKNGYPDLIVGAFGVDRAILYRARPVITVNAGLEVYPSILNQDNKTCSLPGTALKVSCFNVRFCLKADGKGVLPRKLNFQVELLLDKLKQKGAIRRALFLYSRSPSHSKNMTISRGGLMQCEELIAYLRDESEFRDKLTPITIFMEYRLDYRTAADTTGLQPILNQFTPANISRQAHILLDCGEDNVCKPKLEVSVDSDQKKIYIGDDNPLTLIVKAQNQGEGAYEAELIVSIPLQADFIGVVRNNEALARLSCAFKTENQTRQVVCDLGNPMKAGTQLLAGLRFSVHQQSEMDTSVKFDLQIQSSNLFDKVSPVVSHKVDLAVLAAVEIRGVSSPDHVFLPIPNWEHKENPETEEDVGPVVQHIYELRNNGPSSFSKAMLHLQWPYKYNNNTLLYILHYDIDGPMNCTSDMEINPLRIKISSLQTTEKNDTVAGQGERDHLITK
Integrin alpha-V/beta-3/alpha-V/beta-5, sequence (P06756 891-1048 limits assumed): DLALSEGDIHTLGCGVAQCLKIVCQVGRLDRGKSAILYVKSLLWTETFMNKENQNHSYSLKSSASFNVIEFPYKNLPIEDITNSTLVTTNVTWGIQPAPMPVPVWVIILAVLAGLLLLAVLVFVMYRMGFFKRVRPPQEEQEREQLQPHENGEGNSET
Integrin alpha-V/beta-3/alpha-V/beta-5, sequence (P18084 24-799 limits assumed): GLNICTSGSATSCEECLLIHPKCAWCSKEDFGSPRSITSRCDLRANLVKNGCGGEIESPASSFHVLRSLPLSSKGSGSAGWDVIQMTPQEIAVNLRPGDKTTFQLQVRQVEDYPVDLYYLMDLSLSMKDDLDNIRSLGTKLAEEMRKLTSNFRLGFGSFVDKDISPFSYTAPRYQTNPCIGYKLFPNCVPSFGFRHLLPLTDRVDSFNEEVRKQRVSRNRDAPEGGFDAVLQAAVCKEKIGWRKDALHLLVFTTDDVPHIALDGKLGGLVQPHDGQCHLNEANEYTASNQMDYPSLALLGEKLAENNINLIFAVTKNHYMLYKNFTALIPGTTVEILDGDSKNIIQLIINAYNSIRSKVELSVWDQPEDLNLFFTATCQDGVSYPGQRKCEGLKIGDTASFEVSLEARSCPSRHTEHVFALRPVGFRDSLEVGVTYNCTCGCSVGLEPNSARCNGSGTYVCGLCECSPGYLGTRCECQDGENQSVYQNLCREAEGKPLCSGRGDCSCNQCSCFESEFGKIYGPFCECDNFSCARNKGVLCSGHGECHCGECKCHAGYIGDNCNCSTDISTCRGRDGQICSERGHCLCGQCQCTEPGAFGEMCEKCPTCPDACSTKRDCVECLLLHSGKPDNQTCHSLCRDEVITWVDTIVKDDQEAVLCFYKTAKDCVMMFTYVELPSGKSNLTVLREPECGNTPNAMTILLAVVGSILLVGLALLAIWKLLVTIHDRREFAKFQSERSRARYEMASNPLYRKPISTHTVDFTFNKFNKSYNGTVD
Assay [3] deals with Integrin alpha-V/beta-5 (Homo sapiens, UniProt P06756+P18084). Kind of assay: Antagonist activity at integrin alphaVbeta5 (unknown origin) expressed in HT-29 cells assessed as reduction in cell adhesion to vitronectin after 2 hrs by MTT assay.
Integrin alpha-V/beta-5, sequence (P06756 31-889 limits assumed): as the sequence (P06756 31-889 limits assumed) above
Integrin alpha-V/beta-5, sequence (P06756 891-1048 limits assumed): as the sequence (P06756 891-1048 limits assumed) above
Integrin alpha-V/beta-5, sequence (P18084 24-799 limits assumed): as the sequence (P18084 24-799 limits assumed) above
Assay [4] is filed under the species Homo sapiens. Put plainly: Selectivity ratio of IC50 for integrin alphaVbeta5 (unknown origin) expressed in HT-29 cells to IC50 for integrin alphaVbeta3 (unknown origin) expressed in HEK293 cells.
Assay [5] is filed under the species Homo sapiens. Kind of assay: Selectivity ratio of IC50 for integrin alphaVbeta5 (unknown origin) expressed in HT-29 cells to IC50 for integrin alphaVbeta3alphaVbeta5 (unknown origin) expressed in SKOV3 cells.

Integrin alpha-V/beta-3, sequence (P05106 27-788 limits assumed): as the sequence (P05106 27-788 limits assumed) above
Integrin alpha-V/beta-3, sequence (P06756 31-889 limits assumed): as the sequence (P06756 31-889 limits assumed) above
Integrin alpha-V/beta-3, sequence (P06756 891-1048 limits assumed): as the sequence (P06756 891-1048 limits assumed) above

For `CC(C)C[C@@H]1NC(=O)[C@H](CC(=O)O)NC(=O)CNC(=O)[C@H](CCCNC(=N)N)NC(=O)[C@H](CC(=O)O)NC(=O)CNC(=O)[C@H](CCCNC(=N)N)NC(=O)CNC(=O)CNC(=O)CNC(=O)CNC(=O)[C@H]([C@@H](C)O)NC(=O)[C@H](CCC(=O)O)NC(=O)[C@@H]2CCCN2C1=O` (cyclo(RGDLPETGGGGRGD)), the IC50 in assay [1] was 48.8 µM; in assay [2] it was 26 µM; in assay [3], 26 µM.
Take `CC(C)C[C@@H]1NC(=O)[C@H](CC(=O)O)NC(=O)CNC(=O)[C@H](CCCNC(=N)N)NC(=O)[C@H](CC(=O)O)NC(=O)CNC(=O)[C@H](CCCNC(=N)N)NC(=O)[C@H](CC(=O)O)NC(=O)CNC(=O)[C@H](CCCNC(=N)N)NC(=O)CNC(=O)[C@H]([C@@H](C)O)NC(=O)[C@H](CCC(=O)O)NC(=O)[C@@H]2CCCN2C1=O` (cyclo(RGDLPETGRGDRGD)): the IC50 in assay [1] was 257 µM; in assay [2], 136 µM; in assay [3] it was 380 µM.
Turning to `CC(C)C[C@@H]1NC(=O)[C@H](CC(=O)O)NC(=O)CNC(=O)[C@H](CCCNC(=N)N)NC(=O)CNC(=O)CNC(=O)CNC(=O)CNC(=O)CNC(=O)CNC(=O)CNC(=O)NC(=O)[C@H]([C@@H](C)O)NC(=O)[C@H](CCC(=O)O)NC(=O)[C@@H]2CCCN2C1=O` (cyclo(RGDLPE[X1]GGGGGGG)), the IC50 stood at 7.2 µM in assay [1], 19 µM in assay [2] and 522 µM in assay [3].
On to H-GGGGGGGRGDLPETGGS-OH, for which the IC50 was found to be 171 µM in assay [1], 102 µM in assay [2] and 2950 µM in assay [3].
Take H-GGGGRGDRGDLPETGGS-OH: the Ratio IC50 in assay [4] is above 50; in assay [5], above 400. The IC50 was found to be 33 µM in assay [1], 4 µM in assay [2] and 1730 µM in assay [3].
Consider H-GRGDRGDRGDLPETGGS-OH, for which the IC50 in assay [1] turned out to be 152 µM; in assay [2], 74 µM; in assay [3] it was 25 µM.
Taken in the same sequence, the figures for H-RGDRGD-OH were 619 µM, 753 µM and 546 µM.

For the origin of these results see ChEMBL document CHEMBL4014304, “New potent and selective αvβ3 integrin ligands: Macrocyclic peptides containing RGD motif synthesized by sortase A-mediated ligation” (Bioorg Med Chem Lett, 2017).
